The text below walks through data of patent publication US20250325552A1, “SUBSTITUTED THIADIAZOLYL DERIVATIVES AS DNA POLYMERASE THETA INHIBITORS” (IDEAYA Biosciences, Inc., priority 2020, published 2025).

Some results are limits rather than exact numbers.

Chain of Polθ theta (1-899) (hPolQ) (O75417 1-899): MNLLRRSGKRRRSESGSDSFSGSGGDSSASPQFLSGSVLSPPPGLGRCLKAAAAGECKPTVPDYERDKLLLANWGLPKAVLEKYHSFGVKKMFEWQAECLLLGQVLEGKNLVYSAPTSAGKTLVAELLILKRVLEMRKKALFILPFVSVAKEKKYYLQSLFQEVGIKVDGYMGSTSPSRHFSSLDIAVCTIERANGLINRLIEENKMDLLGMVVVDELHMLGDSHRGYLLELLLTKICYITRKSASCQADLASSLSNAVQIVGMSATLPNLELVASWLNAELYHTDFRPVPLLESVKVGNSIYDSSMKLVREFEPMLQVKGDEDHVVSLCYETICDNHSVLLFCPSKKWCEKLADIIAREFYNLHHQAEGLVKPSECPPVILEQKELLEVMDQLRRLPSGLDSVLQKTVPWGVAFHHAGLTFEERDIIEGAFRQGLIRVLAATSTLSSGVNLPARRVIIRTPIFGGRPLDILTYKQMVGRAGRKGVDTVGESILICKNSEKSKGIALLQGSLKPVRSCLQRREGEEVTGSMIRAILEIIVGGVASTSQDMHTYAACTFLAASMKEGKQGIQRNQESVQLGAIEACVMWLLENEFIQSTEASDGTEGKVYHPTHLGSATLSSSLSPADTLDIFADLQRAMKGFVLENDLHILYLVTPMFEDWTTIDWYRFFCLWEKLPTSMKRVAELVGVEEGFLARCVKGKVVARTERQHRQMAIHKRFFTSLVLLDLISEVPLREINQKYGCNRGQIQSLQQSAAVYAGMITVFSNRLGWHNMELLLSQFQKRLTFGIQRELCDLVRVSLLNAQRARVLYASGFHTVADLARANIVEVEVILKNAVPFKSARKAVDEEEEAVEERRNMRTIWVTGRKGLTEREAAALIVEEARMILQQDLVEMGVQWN

This experiment has as its target Polθ theta (1-899) (hPolQ) (Homo sapiens (Human), UniProt O75417). Nature of the experiment: Biological Assay 1: Polθ ATPase activity, NADH oxidation-coupled enzymatic assay (10 nM enzyme, 30 min). To be noted: Polθ (1-899) 10 nM, 100 μM ATP, 300 nM dT50 ssDNA; Examples 1 to 268; read-out: ATPase NADH coupling:Standard Screening:hPolQ IC50. It is filed as biochemical. In outline:
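Polθ (1-899) at 10 nM was preincubated with compound for 15 min at room temperature in 20 mM Tris pH 7.80, 80 mM KCl, 10 mM MgCl2. An equal volume of 100 μM ATP, 300 nM dT50 ssDNA and a PK/LDH–NADH coupling system was then added. A340 was read each minute for 30 min. IC50 came from rate slopes over 10-point series with a four-parameter fit.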
On to `COc1cnc(Cl)cc1-c1cc(C)ncc1C(=O)Nc1nnc(OC[C@H]2CCOC2(C)C)s1` (single isomer, unassigned) [Example 190], for which the 50% inhibitory concentration (IC50) is not above 200 nM.
As to `COc1cnc(Cl)cc1-c1cc(C)ncc1C(=O)Nc1nnc(OCC23COC(C2)C3)s1` [Example 229, N-(5-((2-oxabicyclo(2.1.1)hexan-4-yl)methoxy)-1,3,4-thiadiazol-2-yl)-2′-chloro-5′-methoxy-6-methyl-(4,4′-bipyridine)-3-carboxamide], the IC50 was not above 200 nM.
On to `COc1cnc(C)cc1-c1cc(C)ncc1C(=O)Nc1nnc(OC[C@H]2CC[C@@H](O)CC2)s1` [Example 127, N-(5-(((1s,4s)-4-hydroxycyclohexyl)methoxy)-1,3,4-thiadiazol-2-yl)-5′-methoxy-2′,6-dimethyl-[4,4′-bipyridine]-3-carboxamide], for which the IC50 was not above 200 nM.
The value for `COc1cnc(Cl)cc1-c1cc(C)ncc1C(=O)Nc1nnc(OC[C@H]2CC[C@@H](F)CC2)s1` [Example 196, 2′-chloro-N-(5-(((1s,4s)-4-fluorocyclohexyl)methoxy)-1,3,4-thiadiazol-2-yl)-5′-methoxy-6-methyl-(4,4′-bipyridine)-3-carboxamide] was not above 200 nM.
The value for `Cc1cc(-c2cc(CO)ccc2F)c(C(=O)Nc2nnc(OCc3ccc(Cl)cn3)s2)cn1` [Example 23, N-(5-((5-chloropyridin-2-yl)methoxy)-1,3,4-thiadiazol-2-yl)-4-(2-fluoro-5-(hydroxymethyl)phenyl)-6-methylnicotinamide] was not above 200 nM; that for `COc1cnc(C)c(F)c1-c1cc(C)ncc1C(=O)Nc1nnc(OC[C@H]2COCCO2)s1` [Example 242, N-(5-(((R)-1,4-dioxan-2-yl)methoxy)-1,3,4-thiadiazol-2-yl)-3′-fluoro-5′-methoxy-2′,6-dimethyl-(4,4′-bipyridine)-3-carboxamide] was not above 200 nM.
The value for `COc1cnc(Cl)cc1-c1cc(C)ncc1C(=O)Nc1nnc(OCC23CC(F)(C2)C3)s1` [Example 78, 2′-chloro-N-(5-((3-fluorobicyclo(1.1.1)pentan-1-yl)methoxy)-1,3,4-thiadiazol-2-yl)-5′-methoxy-6-methyl-(4,4′-bipyridine)-3-carboxamide] was not above 200 nM; that for `COc1cnc(Cl)cc1-c1cc(C)ncc1C(=O)Nc1nnc(OCC2CCNC2)s1` (racemic) [Example 175, 2′-chloro-5′-methoxy-6-methyl-N-(5-(pyrrolidin-3-ylmethoxy)-1,3,4-thiadiazol-2-yl)-(4,4′-bipyridine)-3-carboxamide] was not above 200 nM; that for `COc1cccc(F)c1-c1cc(C)ncc1C(=O)Nc1nnc(OCc2ccc(CC3COC3)cn2)s1` [Example 54, 4-(2-fluoro-6-methoxyphenyl)-6-methyl-N-(5-((5-(oxetan-3-ylmethyl)pyridin-2-yl)methoxy)-1,3,4-thiadiazol-2-yl)nicotinamide] was not above 200 nM.
As for `COc1cccc(F)c1-c1cc2nc[nH]c2cc1C(=O)Nc1nnc(OC[C@H]2CC[C@H](O)CC2)s1` [Example 199, 5-(2-fluoro-6-methoxyphenyl)-N-(5-(((1r,4r)-4-hydroxycyclohexyl)methoxy)-1,3,4-thiadiazol-2-yl)-1H-benzo(d)imidazole-6-carboxamide], the IC50 was 1000 to 10000 nM.
Under `COc1cccc(F)c1-c1cc(C)ncc1C(=O)Nc1nnc(OCc2ccc([C@@H](C)OC)cn2)s1` [Example 94, 4-(2-fluoro-6-methoxyphenyl)-N-(5-((5-((R)-1-methoxyethyl)pyridin-2-yl)methoxy)-1,3,4-thiadiazol-2-yl)-6-methylnicotinamide] stands not above 200 nM.
The value for `COc1cccc(F)c1-c1cc(C)ncc1C(=O)Nc1nnc(OCC23CCC(O)(CC2)CC3)s1` [Example 66, 4-(2-fluoro-6-methoxyphenyl)-N-(5-((4-hydroxybicyclo(2.2.2)octan-1-yl)methoxy)-1,3,4-thiadiazol-2-yl)-6-methylnicotinamide] was not above 200 nM; that for `COc1cnc(C)cc1-c1cc(C)ncc1C(=O)Nc1nnc(OCc2ccc(C(C)(C)OC)cn2)s1` [Example 126, 5′-methoxy-N-(5-((5-(2-methoxypropan-2-yl)pyridin-2-yl)methoxy)-1,3,4-thiadiazol-2-yl)-2′,6-dimethyl-(4,4′-bipyridine)-3-carboxamide] was not above 200 nM.
Regarding `COc1ccc(Cl)cc1-c1cc(C)ncc1C(=O)Nc1nnc(OCc2ccc([S@](C)(=N)=O)cc2)s1` [Example 122, (R)-4-(5-chloro-2-methoxyphenyl)-6-methyl-N-(5-((4-(S-methylsulfonimidoyl)benzyl)oxy)-1,3,4-thiadiazol-2-yl)nicotinamide], the IC50 is not above 200 nM.
The value for `COc1cccc(F)c1-c1cc(C)ncc1C(=O)Nc1nnc(OCC23CCC(F)(CC2)CC3)s1` [Example 65, 4-(2-fluoro-6-methoxyphenyl)-N-(5-((4-fluorobicyclo(2.2.2)octan-1-yl)methoxy)-1,3,4-thiadiazol-2-yl)-6-methylnicotinamide] was not above 200 nM; that for `COc1cnc(C)cc1-c1cc(C)ncc1C(=O)Nc1nnc(OC[C@H]2C[C@H](O)C2)s1` [Example 107, N-(5-(((1r,3r)-3-hydroxycyclobutyl)methoxy)-1,3,4-thiadiazol-2-yl)-5′-methoxy-2′,6-dimethyl-[4,4′-bipyridine]-3-carboxamide] was not above 200 nM; that for `COc1cnc(Cl)cc1-c1cc(C)ncc1C(=O)Nc1nnc(OC[C@@H]2CCC[C@H]2O)s1` (single isomer, unassigned) [Example 255, 2′-chloro-N-(5-((2-hydroxycyclopentyl)methoxy)-1,3,4-thiadiazol-2-yl)-5′-methoxy-6-methyl-(4,4′-bipyridine)-3-carboxamide] was not above 200 nM.
Consider `COc1cnc(Cl)cc1-c1cc(C)ncc1C(=O)Nc1nnc(OCC23CCC(O)(CC2)C3)s1` [Example 218, 2′-chloro-N-(5-((4-hydroxybicyclo(2.2.1)heptan-1-yl)methoxy)-1,3,4-thiadiazol-2-yl)-5′-methoxy-6-methyl-(4,4′-bipyridine)-3-carboxamide], for which the half-inhibitory concentration (IC50) was not above 200 nM.
Under `Cc1cc(-c2ccnc(Cl)c2)c(C(=O)Nc2nnc(OCc3ccc(C(C)(C)O)cn3)s2)cn1` [Example 73, 2′-chloro-N-(5-((5-(2-hydroxypropan-2-yl)pyridin-2-yl)methoxy)-1,3,4-thiadiazol-2-yl)-6-methyl-(4,4′-bipyridine)-3-carboxamide] stands not above 200 nM; under `Cc1cc(-c2c(F)cccc2OC(F)F)c(C(=O)Nc2nnc(OCc3ccc4c(n3)OCCO4)s2)cn1` [Example 47, 4-(2-(difluoromethoxy)-6-fluorophenyl)-N-(5-((2,3-dihydro-(1,4)dioxino(2,3-b)pyridin-6-yl)methoxy)-1,3,4-thiadiazol-2-yl)-6-methylnicotinamide], not above 200 nM; under `COc1cccc(F)c1-c1cncnc1C(=O)Nc1nnc(OCc2ccc(CO)cn2)s1` [Example 37, 5-(2-fluoro-6-methoxyphenyl)-N-(5-((5-(hydroxymethyl)pyridin-2-yl)methoxy)-1,3,4-thiadiazol-2-yl)pyrimidine-4-carboxamide], not above 200 nM.
For the molecule `COc1ccc(F)cc1-c1cc(C)ncc1C(=O)Nc1nnc(OCc2ccc(C(C)(C)O)cn2)s1` [Example 63, 4-(5-fluoro-2-methoxyphenyl)-N-(5-((5-(2-hydroxypropan-2-yl)pyridin-2-yl)methoxy)-1,3,4-thiadiazol-2-yl)-6-methylnicotinamide], the concentration for half-maximal inhibition (IC50) was not above 200 nM.
Under `COc1cnc(C2CC2)cc1-c1cc(C)ncc1C(=O)Nc1nnc(OCc2ccc(C(C)(C)O)cn2)s1` [Example 105, 2′-cyclopropyl-N-(5-((5-(2-hydroxypropan-2-yl)pyridin-2-yl)methoxy)-1,3,4-thiadiazol-2-yl)-5′-methoxy-6-methyl-[4,4′-bipyridine]-3-carboxamide] stands not above 200 nM.
The value for `COc1cccc(F)c1-c1cc(C)ncc1C(=O)Nc1nnc(OC[C@H]2CC[C@H](O)CC2)s1` [Example 104, 4-(2-fluoro-6-methoxyphenyl)-N-(5-(((1r,4r)-4-hydroxycyclohexyl)methoxy)-1,3,4-thiadiazol-2-yl)-6-methylnicotinamide] was not above 200 nM; that for `COc1cnc(Cl)cc1-c1cc(C)ncc1C(=O)Nc1nnc(OC[C@@H]2CCOC2(C)C)s1` (single isomer, unassigned) [Example 191] was not above 200 nM; that for `COc1c(C#N)cccc1-c1cc(C)ncc1C(=O)Nc1nnc(OCc2ccc(Cl)cn2)s1` [Example 21, N-(5-((5-chloropyridin-2-yl)methoxy)-1,3,4-thiadiazol-2-yl)-4-(3-cyano-2-methoxyphenyl)-6-methylnicotinamide] was not above 200 nM.
For the molecule `COc1cccc(F)c1-c1cc(C)ncc1C(=O)Nc1nnc(OCc2ccc(C3(C)COC3)cn2)s1` [Example 140, 4-(2-fluoro-6-methoxyphenyl)-6-methyl-N-(5-((5-(3-methyloxetan-3-yl)pyridin-2-yl)methoxy)-1,3,4-thiadiazol-2-yl)nicotinamide], the IC50 is not above 200 nM.
As for `COc1cnc(Cl)cc1-c1cc(C)ncc1C(=O)Nc1nnc(OCc2ccc(Cl)cn2)s1` [Example 8, 2′-chloro-N-(5-((5-chloropyridin-2-yl)methoxy)-1,3,4-thiadiazol-2-yl)-5′-methoxy-6-methyl-[4,4′-bipyridine]-3-carboxamide], the IC50 is not above 200 nM.
Under `COc1cnc(Cl)cc1-c1cc(C)ncc1C(=O)Nc1nnc(OC[C@H]2CC[C@](C)(O)CC2)s1` [Example 214, 2′-chloro-N-(5-(((1r,4r)-4-hydroxy-4-methylcyclohexyl)methoxy)-1,3,4-thiadiazol-2-yl)-5′-methoxy-6-methyl-(4,4′-bipyridine)-3-carboxamide] stands not above 200 nM.
